{
  "source": "paper PMC9056484",
  "about": "(Advances in Therapy, 2022)",
  "origin": "cited, not measured here",
  "key": {"dopamine D3 receptor": {"target": "dopamine D3 receptor", "settings": "read-out: Ki, D3 receptor"}, "[1]": {"test": "not given", "remark": "listed apart in the source"}, "[2]": {"test_system": "early Parkinson disease patients"}, "[3]": {"test_system": "early Parkinson's disease patients", "settings": "pramipexole 1.5 mg/day, 9 months"}, "[4]": {"test_system": "early Parkinson's disease patients"}, "early PD patients [5]": {"test_system": "early PD patients"}, "early PD patients [6]": {"test_system": "early PD patients", "settings": "higher doses of pramipexole in early PD"}, "[7]": {"test_system": "Parkinson's disease patients", "settings": "pramipexole monotherapy"}, "[8]": {"test": "not given", "remark": "listed apart in the source"}, "human albumin": {"test_system": "human albumin", "settings": "concentration range 1–100 ng/ml"}, "[9]": {"test_system": "early Parkinson disease patients", "settings": "rasagiline 1 mg/day, Week 26"}, "[10]": {"test_system": "Parkinson's disease patients", "settings": "for effects on clinical progression (in words): delayed-start design trial"}, "[11]": {"settings": "Pramipexole 1.5 mg, n = 54, STEP-UP"}, "[12]": {"settings": "Pramipexole groups combined (1.5–6 mg), N = 213, STEP-UP"}, "[13]": {"settings": "Pramipexole 0.5 mg BID, n = 81, PRAMI-BID"}, "[14]": {"settings": "Pramipexole 0.5 mg TID, n = 80, PRAMI-BID"}, "[15]": {"settings": "Pramipexole 0.75 mg BID, n = 73, PRAMI-BID"}},
  "note": "Where two headings read alike, the source gives them in different places.",
  "data": [
    {"smiles": "NC1CCc2ccccc21", "note": "(centres unmarked) [1-aminoindan]", "values": [
      {"measurement": "MAO-B inhibition (in words)", "setting": "MAO-B", "result": "weak MAO-B inhibitor"}
    ]},
    {"smiles": "CCCN[C@H]1CCc2nc(N)sc2C1", "note": "[Pramipexole]", "values": [
      {"measurement": "Ki", "setting": "dopamine D3 receptor", "result": 0.5, "unit": "nM"},
      {"measurement": "affinity for D1 receptors, times lower than that to D3 receptors", "setting": "D1 receptors", "result": "around 200,000 times"},
      {"measurement": "absolute oral bioavailability", "result": "> 90", "unit": "%"},
      {"measurement": "absorbed dose eliminated unchanged", "setting": "almost exclusively by the kidneys", "result": "> 90", "unit": "%"},
      {"measurement": "protein bound", "setting": "[1]", "result": "< 20", "unit": "%"},
      {"measurement": "Adverse event: Confusion", "setting": "[2]; [11]", "result": "3 (5.6)"},
      {"measurement": "Adverse event: Constipation", "setting": "[2]; [11]", "result": "4 (7.4)"},
      {"measurement": "Adverse event: Dizziness", "setting": "[2]; [11]", "result": "10 (18.5)"},
      {"measurement": "Adverse event: Fatigue", "setting": "[2]; [11]", "result": "4 (7.4)"},
      {"measurement": "Adverse event: Hallucination", "setting": "[2]; [11]", "result": "4 (7.4)"},
      {"measurement": "Adverse event: Headache", "setting": "[2]; [11]", "result": "5 (9.2)"},
      {"measurement": "Adverse event: Insomnia", "setting": "[2]; [11]", "result": "2 (3.7)"},
      {"measurement": "Adverse event: Nausea", "setting": "[2]; [11]", "result": "9 (16.7)"},
      {"measurement": "Adverse event: Somnolence", "setting": "[2]; [11]", "result": "9 (16.7)"},
      {"measurement": "Adverse event: Confusion", "setting": "[2]; [12]", "result": "9 (4.2)"},
      {"measurement": "Adverse event: Constipation", "setting": "[2]; [12]", "result": "23 (10.8)"},
      {"measurement": "Adverse event: Dizziness", "setting": "[2]; [12]", "result": "39 (18.3)"},
      {"measurement": "Adverse event: Hallucination", "setting": "[2]; [12]", "result": "14 (6.6)"},
      {"measurement": "Adverse event: Headache", "setting": "[2]; [12]", "result": "24 (11.3)"},
      {"measurement": "Adverse event: Insomnia", "setting": "[2]; [12]", "result": "16 (7.5)"},
      {"measurement": "Adverse event: Nausea", "setting": "[2]; [12]", "result": "42 (19.7)"},
      {"measurement": "Adverse event: Somnolence", "setting": "[2]; [12]", "result": "58 (27.2)"},
      {"measurement": "patients with hallucinations", "setting": "[2]; pramipexole 1.5 mg, within 10 weeks", "result": "> 5", "unit": "%"},
      {"measurement": "improvement of Total UPDRS scores versus placebo", "setting": "[2]; pramipexole 1.5 mg/day, Week 10", "result": 5.2, "unit": "points"},
      {"measurement": "improvement of Total UPDRS scores versus placebo", "setting": "[3]", "result": 4.8, "unit": "points"},
      {"measurement": "Adverse event: Abnormal dreams", "setting": "[4]; [13]", "result": "3 (3.7)"},
      {"measurement": "Adverse event: Constipation", "setting": "[4]; [13]", "result": "8 (9.9)"},
      {"measurement": "Adverse event: Dizziness", "setting": "[4]; [13]", "result": "9 (11.1)"},
      {"measurement": "Adverse event: Fatigue", "setting": "[4]; [13]", "result": "6 (7.4)"},
      {"measurement": "Adverse event: Headache", "setting": "[4]; [13]", "result": "7 (8.6)"},
      {"measurement": "Adverse event: Insomnia", "setting": "[4]; [13]", "result": "3 (3.7)"},
      {"measurement": "Adverse event: Nausea", "setting": "[4]; [13]", "result": "18 (22.2)"},
      {"measurement": "Adverse event: Peripheral edema", "setting": "[4]; [13]", "result": "2 (2.5)"},
      {"measurement": "Adverse event: Somnolence", "setting": "[4]; [13]", "result": "14 (17.3)"},
      {"measurement": "Adverse event: Abnormal dreams", "setting": "[4]; [14]", "result": "5 (6.3)"},
      {"measurement": "Adverse event: Constipation", "setting": "[4]; [14]", "result": "5 (6.3)"},
      {"measurement": "Adverse event: Dizziness", "setting": "[4]; [14]", "result": "9 (11.3)"},
      {"measurement": "Adverse event: Fatigue", "setting": "[4]; [14]", "result": "4 (5.0)"},
      {"measurement": "Adverse event: Headache", "setting": "[4]; [14]", "result": "4 (5.0)"},
      {"measurement": "Adverse event: Insomnia", "setting": "[4]; [14]", "result": "6 (7.5)"},
      {"measurement": "Adverse event: Nausea", "setting": "[4]; [14]", "result": "15 (18.8)"},
      {"measurement": "Adverse event: Peripheral edema", "setting": "[4]; [14]", "result": "3 (3.8)"},
      {"measurement": "Adverse event: Somnolence", "setting": "[4]; [14]", "result": "20 (25.0)"},
      {"measurement": "Adverse event: Abnormal dreams", "setting": "[4]; [15]", "result": "2 (2.7)"},
      {"measurement": "Adverse event: Constipation", "setting": "[4]; [15]", "result": "7 (9.6)"},
      {"measurement": "Adverse event: Dizziness", "setting": "[4]; [15]", "result": "5 (6.8)"},
      {"measurement": "Adverse event: Fatigue", "setting": "[4]; [15]", "result": "7 (9.6)"},
      {"measurement": "Adverse event: Headache", "setting": "[4]; [15]", "result": "6 (8.2)"},
      {"measurement": "Adverse event: Insomnia", "setting": "[4]; [15]", "result": "11 (15.1)"},
      {"measurement": "Adverse event: Nausea", "setting": "[4]; [15]", "result": "11 (15.1)"},
      {"measurement": "Adverse event: Peripheral edema", "setting": "[4]; [15]", "result": "4 (5.5)"},
      {"measurement": "Adverse event: Somnolence", "setting": "[4]; [15]", "result": "16 (21.9)"},
      {"measurement": "Effects on PDQ-39 Total scores versus placebo (in words)", "setting": "[4]; pramipexole 1.0 mg/day (0.5 mg BID), P = 0.32", "result": "not significantly different from placebo"},
      {"measurement": "PDQ-39 Total scores, treatment effect vs. placebo", "setting": "[4]; pramipexole 1.5 mg/day (0.75 mg BID or 0.5 mg TID), P ≤ 0.05", "result": 2.1, "unit": "points"},
      {"measurement": "placebo-adjusted improvements in Total UPDRS", "setting": "[4]; pramipexole 1–1.5 mg/day, Week 12", "result": "4.4–4.7 points"},
      {"measurement": "incidence of somnolence", "setting": "early PD patients [5]; pramipexole pivotal studies in early PD", "result": 22, "unit": "%"},
      {"measurement": "patients with hallucinations", "setting": "early PD patients [5]; pramipexole up to 4.5 mg/day, early PD pivotal trials", "result": 16.5, "unit": "%"},
      {"measurement": "placebo-adjusted changes from baseline in ESS score", "setting": "early PD patients [6]", "result": "1.0–2.1"},
      {"measurement": "disease-modifying effect (in words)", "setting": "[7]", "result": "did not find evidence of a disease-modifying effect"}
    ]},
    {"smiles": "C#CCN[C@@H]1CCc2ccccc21", "note": "[Rasagiline, N-propargyl-1-(R)-aminoindan]", "values": [
      {"measurement": "MAO-B inhibition (in words)", "setting": "MAO-B", "result": "potent and irreversible inhibitor of MAO-B"},
      {"measurement": "absolute bioavailability", "setting": "[8]", "result": "about 36%"},
      {"measurement": "time to peak plasma concentration (Cmax)", "setting": "[8]", "result": "approximately 1 hour"},
      {"measurement": "mean extent of binding to human albumin", "setting": "human albumin", "result": "61–63%"},
      {"measurement": "improvement of Total UPDRS scores versus placebo", "setting": "[9]", "result": 4.2, "unit": "points"},
      {"measurement": "effects on clinical progression (in words)", "setting": "[10]; rasagiline 1.0 mg", "result": "statistically significant effects on clinical progression"},
      {"measurement": "improvement of Total UPDRS scores versus placebo", "setting": "[10]; rasagiline 1 mg/day, ~ Week 36", "result": 3.0, "unit": "points"},
      {"measurement": "effects on clinical progression (in words)", "setting": "[10]; rasagiline 2.0 mg", "result": "but not 2.0 mg, had statistically significant effects"}
    ]}
  ]
}
